The source of these data is EP4741389A1, “KAT6 INHIBITOR” (Shanghai Qilu Pharmaceutical Research and Development …, priority 2023, dated 2025).

Data set [1] has as its system human breast cancer ZR-75-1 cell xenografts. As to the kind of experiment: In vivo efficacy study in BALB/c nude mouse model with subcutaneous ZR-75-1 xenografts. The note with it: for T/C / TGI / Tumor Volume: 0.3 mg/kg; for T/C / TGI: based on tumor volume on day 21 post-administration; for Tumor Volume: day 21 post-administration, female BALB/c nude mice, 7 per group. The text has this: IV. In vivo efficacy study of test drug Compound 2, Compound 5-P2, Compound 3, and Compound A in a BALB/c nude mouse model with subcutaneously implanted human breast cancer ZR-75-1 cell xenografts
The objective of this experiment is to evaluate the in vivo efficacy of the test drug Compound 2, Compound 5-P2, Compound 3, and Compound A in a BALB/c nude mouse model with subcutaneously implanted human breast cancer ZR-75-1 cell xenografts.
(§1) • Species: Mouse; • Strain: BALB/c nude mice; • Age and weight: 6-8 weeks old, weighing 19-26 grams; • Gender: Female; • Supplier: GemPharmatech Co., Ltd.; • Compound source: Compound A: [drawing 190] prepared with reference to patent CN114364672A.
Human breast cancer ZR-75-1 (ATCC, CRL-1500) cells were cultured in vitro as adherent cultures. The culture conditions were: 1640 medium supplemented with 10 vol% FBS, 100 U/mL penicillin, and 100 µg/mL streptomycin, incubated in a 37°C, 5% CO2 cell culture incubator. Routine passaging was performed twice a week. When cell confluence reached 80%-90% and the cell number met the requirements, cells were harvested, counted, and inoculated.
Three days before cell implantation, a 17β-estrogen pellet (0.36 mg) was implanted into the left dorsal side of each mouse. Starting one week after pellet implantation, animals were urinated 2-3 times per week. If necessary, animals were urinated daily.
(§2) A mixture containing 10×10^6 ZR-75-1 cells in 100 µL PBS and 100 µL Matrigel (final volume was 200 µL) was subcutaneously implanted into the right dorsal side (upper side) of each mouse. On day 18 after cell implantation, when the average tumor volume reached 138 mm^3, grouping and administration were initiated. Mice with tumor volumes ranging from 100 to 212 mm^3 were selected for the study. Mice were randomly assigned to groups based on body weight and tumor volume, with 7 mice per group. The day of grouping was designated as PG-D0, and administration for all groups started from PG-D0.
The experimental index is to investigate whether tumor growth is inhibited, delayed, or cured. Tumor diameters were measured three times per week using a vernier caliper. Tumor volume was calculated using the formula: V = 0.5a × b^2, where a and b represent the major and minor diameters of the tumor, respectively.
The anti-tumor efficacy of the compounds was evaluated using TGI (%) or the relative tumor proliferation rate T/C (%). TGI (%), reflects the tumor growth inhibition rate. TGI (%) was calculated as: TGI (%) = [1 - (Mean tumor volume of a treatment group at the end of administration - Mean tumor volume of the same treatment group at the start of administration) / (Mean tumor volume of the vehicle control group at the end of treatment - Mean tumor volume of the vehicle control group at the start of treatment)] × 100%.
Relative Tumor Proliferation Rate T/C (%): The calculation formula is as follows: T/C% = TRTV / CRTV ×100 % (TRTV: RTV of the treatment group; CRTV: RTV of the negative control group). The relative tumor volume (RTV) was calculated based on tumor measurement results using the formula RTV = Vt /V0, where V0 is the tumor volume of each mouse measured at the start of grouping and administration (i.e., d0), and Vt is the tumor volume of each mouse at a specific measurement time. The mean value for each group was then calculated. V0 and Vt correspond to tumor volume data from the same mouse.

Data set [2] can be described thus: Body weight changes and tolerability in the ZR-75-1 xenograft study. The format is in vivo, Mouse. The settings on record: result in words; for body weight changes: differences among the groups, FIG. 1. How it is done: as §1, §2
The effects of the test drugs Compound 2, Compound 5-P2, Compound 3, and Compound A on the body weight of the female BALB/c nude mouse model with subcutaneously implanted human breast cancer ZR-75-1 cell xenografts are shown in FIG. 1.

In the next data set the target is T1, KAT6A (Homo sapiens, UniProt Q92794).
T1 construct: purchased Active Motif 81223
T1 sequence (Q92794 488-778 limits assumed): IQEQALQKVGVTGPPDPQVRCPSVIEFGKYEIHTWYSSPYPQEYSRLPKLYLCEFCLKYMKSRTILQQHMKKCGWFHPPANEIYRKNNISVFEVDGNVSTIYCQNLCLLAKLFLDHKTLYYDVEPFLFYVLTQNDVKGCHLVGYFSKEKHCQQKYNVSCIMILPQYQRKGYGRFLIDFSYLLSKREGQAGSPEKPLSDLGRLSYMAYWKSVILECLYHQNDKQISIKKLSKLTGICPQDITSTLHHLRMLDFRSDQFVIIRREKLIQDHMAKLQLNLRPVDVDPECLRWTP
In words: KATs acetyltransferase enzyme activity assay (TR-FRET), KAT6A. It counts as biochemical. The note with it: Biotin-H3 (1-21) and AcCOA, 90 minutes at room temperature. (In general: In TR-FRET formats the signal depends on donor and acceptor labels being close together.)

The target of another data set is T2, KAT6B (Homo sapiens, UniProt Q8WYB5).
T2 construct: purchased Active Motif 81224
T2 sequence (Q8WYB5 whole entry): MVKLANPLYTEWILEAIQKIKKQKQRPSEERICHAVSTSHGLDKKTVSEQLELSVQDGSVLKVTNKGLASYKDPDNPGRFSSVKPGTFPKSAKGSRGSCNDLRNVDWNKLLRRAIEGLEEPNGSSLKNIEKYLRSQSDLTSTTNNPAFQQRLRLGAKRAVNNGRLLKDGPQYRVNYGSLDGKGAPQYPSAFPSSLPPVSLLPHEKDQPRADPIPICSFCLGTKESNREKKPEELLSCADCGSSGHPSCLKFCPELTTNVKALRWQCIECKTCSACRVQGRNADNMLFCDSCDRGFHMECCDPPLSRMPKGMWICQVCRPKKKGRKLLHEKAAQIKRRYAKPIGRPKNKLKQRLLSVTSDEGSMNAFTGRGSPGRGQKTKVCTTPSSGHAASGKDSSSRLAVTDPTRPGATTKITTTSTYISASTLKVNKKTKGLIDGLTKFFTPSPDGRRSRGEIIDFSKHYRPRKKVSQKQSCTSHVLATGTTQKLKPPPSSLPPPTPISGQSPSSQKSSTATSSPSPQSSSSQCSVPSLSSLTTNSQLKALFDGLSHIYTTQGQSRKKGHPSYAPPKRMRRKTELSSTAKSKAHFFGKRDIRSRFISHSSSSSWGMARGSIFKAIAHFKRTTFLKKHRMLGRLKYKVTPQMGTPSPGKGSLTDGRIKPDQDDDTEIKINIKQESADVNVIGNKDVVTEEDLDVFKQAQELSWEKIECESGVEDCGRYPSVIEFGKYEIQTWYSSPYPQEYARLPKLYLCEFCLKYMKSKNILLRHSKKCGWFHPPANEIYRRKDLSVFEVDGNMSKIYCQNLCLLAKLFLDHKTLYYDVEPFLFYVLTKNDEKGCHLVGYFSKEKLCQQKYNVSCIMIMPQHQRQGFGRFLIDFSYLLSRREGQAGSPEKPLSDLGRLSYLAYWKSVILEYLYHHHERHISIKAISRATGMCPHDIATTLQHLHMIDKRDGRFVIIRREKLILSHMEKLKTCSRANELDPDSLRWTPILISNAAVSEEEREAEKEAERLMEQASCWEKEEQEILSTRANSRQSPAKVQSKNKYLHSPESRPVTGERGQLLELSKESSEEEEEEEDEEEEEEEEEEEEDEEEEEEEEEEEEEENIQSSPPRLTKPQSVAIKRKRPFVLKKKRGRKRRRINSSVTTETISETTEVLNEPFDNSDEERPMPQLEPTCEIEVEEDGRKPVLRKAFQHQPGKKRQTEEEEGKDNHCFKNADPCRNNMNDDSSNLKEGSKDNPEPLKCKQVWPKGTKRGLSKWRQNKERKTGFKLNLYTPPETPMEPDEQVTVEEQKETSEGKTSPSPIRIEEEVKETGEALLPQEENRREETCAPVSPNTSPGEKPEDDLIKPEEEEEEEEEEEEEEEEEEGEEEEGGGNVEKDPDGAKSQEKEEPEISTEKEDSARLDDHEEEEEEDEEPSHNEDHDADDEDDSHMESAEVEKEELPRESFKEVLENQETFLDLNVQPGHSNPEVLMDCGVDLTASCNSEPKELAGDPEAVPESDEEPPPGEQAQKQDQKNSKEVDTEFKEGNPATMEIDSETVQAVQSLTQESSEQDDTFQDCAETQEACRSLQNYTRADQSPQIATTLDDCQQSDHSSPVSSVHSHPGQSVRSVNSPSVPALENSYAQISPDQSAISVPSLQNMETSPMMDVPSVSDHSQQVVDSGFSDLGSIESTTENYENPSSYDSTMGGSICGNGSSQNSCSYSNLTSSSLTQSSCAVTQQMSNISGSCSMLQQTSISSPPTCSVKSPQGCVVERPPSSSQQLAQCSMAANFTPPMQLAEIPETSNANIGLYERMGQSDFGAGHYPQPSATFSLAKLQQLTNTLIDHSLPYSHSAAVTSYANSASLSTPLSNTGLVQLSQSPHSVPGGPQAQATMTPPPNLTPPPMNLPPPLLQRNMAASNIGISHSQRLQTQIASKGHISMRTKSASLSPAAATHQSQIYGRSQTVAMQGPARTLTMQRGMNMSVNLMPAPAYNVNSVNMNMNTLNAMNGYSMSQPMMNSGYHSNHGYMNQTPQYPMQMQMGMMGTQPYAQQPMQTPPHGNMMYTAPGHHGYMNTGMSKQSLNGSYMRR
As to the kind of experiment: KATs acetyltransferase enzyme activity assay (TR-FRET), KAT6B. The format is biochemical. The settings on record: Biotin-H3 (1-21) and AcCOA, 90 minutes at room temperature. Put shortly:
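TR-FRET assay in Tris-HCl buffer: enzyme preincubated with compound 15 min at room temperature, then biotin-H3(1-21) peptide and acetyl-CoA added for 90 min at room temperature. Acetylation detected with Eu-anti-acetyl-histone H4 lysine antibody and ULight-streptavidin (60 min), 665/620 nm ratio; IC50 from four-parameter logistic fit.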

Turning to `COc1ccccc1S(=O)(=O)Nc1noc2cc(Cn3cccn3)cc(OC)c12` [Compound A, reference compound], in data set [1], the T/C was 33.17%, the TGI was 80.40% and the “Tumor Volume” value is 278 ± 44 mm^3. Further, in data set [2], the body weight changes entry is listed as “not significant”.

For `COc1ccc2c(c1S(=O)(=O)Nc1noc3cc(Cn4cccn4)cc(OC)c13)OCC21CC1` [Compound 3, N-(6-((1H-Pyrazol-1-yl)methyl)-4-methoxybenzo[d]isoxazol-3-yl)-6-methoxy-2H-spiro[benzofuran-3,1'-cyclopropane]-7-sulfonamide], in data set [1], the T/C came out at 12.95%, the TGI came out at 104.47% and the “Tumor Volume” value was 106 ± 12 mm^3. In addition, in data set [1] (ZR-75-1 xenograft model, tumor growth curves FIG. 2, result in words), the anti-tumor effects result was “more significant anti-tumor effects compared to Compound A”. Also, the body weight changes entry in data set [2] is “not significant”. Besides, the “tolerability in tumor-bearing mice” value in data set [2] (human breast cancer ZR-75-1 model) was “tolerated”. For the same compound, half-maximal inhibition on KAT6A (IC50) required 1.8 nM. This compound showed an IC50 against KAT6B of 7.5 nM.

One may read the T/C as the ratio of treated to control. As a reminder, the IC50 is the concentration needed to halve the response being measured. High values mean weaker potency in that assay, low ones greater potency in that assay.
